# Experimental data taken from ChEMBL document CHEMBL3396966, “In vitro studies of antimicrobial activity of Gly-His-Lys conjugates as potential and promising candidates for therapeutics in skin and tissue infections” (2015).
# Calls of active or inactive are those of the source. The rule behind the calls is not given here. Non-standard residues stand in square brackets, D forms with d. Residues, ends and D or L forms follow the SMILES beside them. ξ: configuration not given here. *: point of attachment. Stearoyl = CCCCCCCCCCCCCCCCCC(=O)*; Palmitoyl = CCCCCCCCCCCCCCCC(=O)*; Lauroyl = CCCCCCCCCCCC(=O)*; ξHyp = O=C(O)C1CC(O)CN1
# Key:
# Candida albicans [1] = assay: Antifungal activity against Candida albicans after 16 to 20 hrs by broth micro-dilution method; format: functional, organism-based
# Candida albicans [2] = assay: Fungicidal activity against Candida albicans by time-kill assay; format: functional, organism-based
# Escherichia coli [3] = assay: Bactericidal activity against Escherichia coli up to 18 hrs by time-kill assay; format: functional, organism-based
# Pseudomonas aeruginosa [4] = assay: Bactericidal activity against Pseudomonas aeruginosa PCM 2562 (ATCC9027) after 4 hrs by broth micro-dilution method; format: functional, organism-based
# Staphylococcus aureus [5] = assay: Bactericidal activity against Staphylococcus aureus up to 4 times MIC up to 18 hrs by time-kill assay; format: functional, organism-based
# Pseudomonas aeruginosa [6] = assay: Bactericidal activity against Pseudomonas aeruginosa PCM 2562 (ATCC9027) after 18 hrs by broth micro-dilution method; format: functional, organism-based
# Staphylococcus aureus [7] = assay: Bactericidal activity against Staphylococcus aureus at 0.5 to 1 time MIC up to 18 hrs by time-kill assay; format: functional, organism-based
# Staphylococcus aureus [8] = assay: Bactericidal activity against Staphylococcus aureus at 1 to 4 times MIC up to 18 hrs by time-kill assay; format: functional, organism-based
# Staphylococcus aureus [9] = assay: Bactericidal activity against Staphylococcus aureus at 4 times MIC up to 18 hrs by time-kill assay; format: functional, organism-based
# Staphylococcus aureus [10] = assay: Antimicrobial activity against Staphylococcus aureus PCM 2602 (ATCC 6538) after 16 to 20 hrs by broth micro-dilution method; format: functional
# Staphylococcus aureus [11] = assay: Antimicrobial activity against Staphylococcus aureus PCM 2054 (ATCC 25923) after 16 to 20 hrs by broth micro-dilution method; format: functional
# Escherichia coli [12] = assay: Antimicrobial activity against Escherichia coli PCM 2561 (ATCC 8739, DSM 1576) after 16 to 20 hrs by broth micro-dilution method; format: functional
# Escherichia coli [13] = assay: Antimicrobial activity against Escherichia coli DSM11250 (PCM2560, NTCC 10538) after 16 to 20 hrs by broth micro-dilution method; format: functional
# Escherichia coli [14] = assay: Antimicrobial activity against Escherichia coli after 16 to 20 hrs by broth micro-dilution method; format: functional, organism-based
# Staphylococcus aureus [15] = assay: Antimicrobial activity against Staphylococcus aureus after 16 to 20 hrs by broth micro-dilution method; format: functional, organism-based
# Staphylococcus aureus [16] = assay: Bactericidal activity against Staphylococcus aureus at 0.5 to 1 times MIC up to 18 hrs by time-kill assay; format: functional, organism-based
# Staphylococcus aureus [17] = assay: Bacteriostatic activity against Staphylococcus aureus after 16 to 20 hrs by broth micro-dilution method; format: functional, organism-based
# Pseudomonas aeruginosa [18] = assay: Bactericidal activity against Pseudomonas aeruginosa PCM 2562 (ATCC9027) after 16 to 20 hrs by broth micro-dilution method; format: functional, organism-based
# Staphylococcus aureus [19] = assay: Bactericidal activity against Staphylococcus aureus at 8 times MIC after 18 hrs by time-kill assay; format: functional, organism-based
# Staphylococcus aureus [20] = assay: Bactericidal activity against Staphylococcus aureus after 16 to 20 hrs by broth micro-dilution method; format: functional, organism-based
# Pseudomonas aeruginosa [21] = assay: Bacteriostatic activity against Pseudomonas aeruginosa PCM 2562 (ATCC9027) after 16 to 20 hrs by broth micro-dilution method; format: functional, organism-based
# Candida albicans [22] = assay: Fungicidal activity against Candida albicans at MIC by time-kill assay; format: functional, organism-based
# Staphylococcus aureus [23] = assay: Bactericidal activity against Staphylococcus aureus at 100 ug/ml up to 18 hrs by time-kill assay; format: functional, organism-based
# Staphylococcus aureus [24] = assay: Bactericidal activity against Staphylococcus aureus at 6 times MIC up to 18 hrs by time-kill assay; format: functional, organism-based
# Pseudomonas aeruginosa [25] = assay: Antimicrobial activity against Pseudomonas aeruginosa PCM 2562 (ATCC9027) after 16 to 20 hrs by broth micro-dilution method; format: functional
# Candida albicans [26] = assay: Fungicidal activity against Candida albicans at 2 times MIC by time-kill assay; format: functional, organism-based
# Pseudomonas aeruginosa [27] = assay: Bactericidal activity against Pseudomonas aeruginosa PCM 2562 (ATCC9027) at 4 times MIC up to 18 hrs by broth micro-dilution method; format: functional, organism-based
# Candida albicans [28] = assay: Fungicidal activity against Candida albicans at 250 ug/ml by time-kill assay; format: functional, organism-based
# Candida albicans [29] = assay: Fungicidal activity against Candida albicans at 4 to 8 times MIC after 4 hrs by time-kill assay; format: functional, organism-based
# Candida albicans [30] = assay: Fungicidal activity against Candida albicans at 8 times MIC after 4 hrs by time-kill assay; format: functional, organism-based
# Candida albicans [31] = assay: Fungicidal activity against Candida albicans at 2 to 4 times MIC by time-kill assay; format: functional, organism-based
# Staphylococcus aureus [32] = assay: Bactericidal activity against Staphylococcus aureus at 4 times MIC up to 18 hrs by time-kill assay
# Staphylococcus aureus [33] = assay: Bactericidal activity against Staphylococcus aureus at 8 times MIC up to 18 hrs by time-kill assay; format: functional, organism-based
# [34] = Staphylococcus aureus, PCM 2602 (ATCC 6538)
# [35] = Staphylococcus aureus, PCM 2054 (ATCC 25923)
# [36] = Escherichia coli, PCM 2561 (ATCC 8739, DSM 1576)
# [37] = Escherichia coli, DSM11250 (PCM2560, NTCC 10538)
# [38] = Pseudomonas aeruginosa, PCM 2562 (ATCC9027)
compound,measurement,setting,value
NYSTATIN,MFC,Candida albicans [1],7.8 µg/mL
same,MFC50,Candida albicans [1],1.9 µg/mL
same,MFC90,Candida albicans [1],7.8 µg/mL
same,MIC50,Candida albicans [1],1.9 µg/mL
same,MIC90,Candida albicans [1],3.9 µg/mL
same,Activity,Candida albicans [2],Active
CCCCCCCCCCCCCCCCCC(=O)NCC(=O)N1CC(O)CC1C(=O)N[C@H](CCCCN)C(=O)O (some centres undefined),Activity,Escherichia coli [3],Active
CCCCCCCCCCCCCCCC(=O)NCC(=O)N1CC(O)CC1C(=O)N[C@@H](CCCCN)C(=O)O (some centres undefined) (Palmitoyl-Gly-[ξHyp]-Lys-OH),Activity,Pseudomonas aeruginosa [4],Active
same,Activity,Escherichia coli [3],Active
same,Activity,Staphylococcus aureus [5],Active
same,Activity,Pseudomonas aeruginosa [6],Active
same,Activity,Staphylococcus aureus [7],Active
same,Activity,Staphylococcus aureus [8],Active
same,Activity,Staphylococcus aureus [9],Active
NC[C@H]1O[C@H](O[C@H]2[C@H](O)[C@@H](O[C@H]3O[C@H](CO)[C@@H](O)[C@H](N)[C@H]3O)[C@H](N)C[C@@H]2N)[C@H](O)[C@@H](O)[C@@H]1O [KANAMYCIN],MBC50,Staphylococcus aureus [10],3.9 µg/mL
same,MBC90,Staphylococcus aureus [10],7.8 µg/mL
same,MBC,Staphylococcus aureus [10]; [34],11.7 µg/mL
same,MIC,Staphylococcus aureus [10]; [34],2.9 µg/mL
same,MIC50,Staphylococcus aureus [10]; [34],2.9 µg/mL
same,MIC90,Staphylococcus aureus [10]; [34],5.8 µg/mL
same,MBC50,Staphylococcus aureus [11],3.9 µg/mL
same,MBC90,Staphylococcus aureus [11],7.8 µg/mL
same,MBC,Staphylococcus aureus [11]; [35],11.7 µg/mL
same,MIC,Staphylococcus aureus [11]; [35],2.9 µg/mL
same,MIC50,Staphylococcus aureus [11]; [35],2.9 µg/mL
same,MIC90,Staphylococcus aureus [11]; [35],5.8 µg/mL
same,MBC50,Escherichia coli [12],15.6 µg/mL
same,MBC90,Escherichia coli [12],31.3 µg/mL
same,MBC,Escherichia coli [12]; [36],7.8 µg/mL
same,MIC,Escherichia coli [12]; [36],3.9 µg/mL
same,MIC50,Escherichia coli [12]; [36],7.8 µg/mL
same,MIC90,Escherichia coli [12]; [36],15.6 µg/mL
same,MBC50,Escherichia coli [13],15.6 µg/mL
same,MBC90,Escherichia coli [13],31.3 µg/mL
same,MBC,Escherichia coli [13]; [37],7.8 µg/mL
same,MIC,Escherichia coli [13]; [37],3.9 µg/mL
same,MIC50,Escherichia coli [13]; [37],7.8 µg/mL
same,MIC90,Escherichia coli [13]; [37],15.6 µg/mL
CC(=O)NCC(=O)N1CC(O)CC1C(=O)N[C@H](CCCCN)C(=O)O (some centres undefined),Activity,Escherichia coli [14],Active
CSCC[C@H](NC(=O)C1CC(O)CN1C(=O)CN)C(=O)N[C@@H](CCCCN)C(=O)O (some centres undefined) (H-G[ξHyp]MK-OH),Activity,Escherichia coli [14],inactive
same,Activity,Escherichia coli [3],Active
same,Activity,Staphylococcus aureus [15],Active
CCCCCCCCCCCC(=O)NCC(=O)NCC(=O)N1CC(O)CC1C(=O)N[C@@H](CCCCN)C(=O)O (some centres undefined) (Lauroyl-GG[ξHyp]K-OH),Activity,Escherichia coli [3],Active
same,Activity,Staphylococcus aureus [16],Active
CCCCCCCCCCCC(=O)NCC(=O)N1CC(O)CC1C(=O)N[C@@H](CCCCN)C(=O)O (some centres undefined),Activity,Staphylococcus aureus [17],Active
same,Activity,Pseudomonas aeruginosa [4],Active
same,Activity,Escherichia coli [14],Active
same,Activity,Escherichia coli [3],Active
same,Activity,Pseudomonas aeruginosa [18],Active
same,Activity,Pseudomonas aeruginosa [6],Active
same,Activity,Staphylococcus aureus [19],Active
same,Activity,Staphylococcus aureus [20],Active
same,Activity,Pseudomonas aeruginosa [21],Active
CCCCCCCCCCCCCCCC(=O)NCC(=O)N1CC(O)CC1C(=O)N[C@@H](CCCCN)C(N)=O (some centres undefined) (Palmitoyl-Gly-[ξHyp]-Lys-NH2),MBC50,Staphylococcus aureus [10],93.7 µg/mL
same,MBC90,Staphylococcus aureus [10],125 µg/mL
same,MIC50,Staphylococcus aureus [10]; [34],31.3 µg/mL
same,MIC90,Staphylococcus aureus [10]; [34],31.3 µg/mL
same,Activity,Candida albicans [22],Active
same,Activity,Staphylococcus aureus [23],Active
same,Activity,Staphylococcus aureus [24],Active
same,MBC50,Pseudomonas aeruginosa [25],1500 µg/mL
same,MBC90,Pseudomonas aeruginosa [25],2000 µg/mL
same,MIC50,Pseudomonas aeruginosa [25]; [38],375 µg/mL
same,MIC90,Pseudomonas aeruginosa [25]; [38],500 µg/mL
same,Activity,Candida albicans [26],Active
same,MBC50,Staphylococcus aureus [11],93.7 µg/mL
same,MBC90,Staphylococcus aureus [11],125 µg/mL
same,MIC50,Staphylococcus aureus [11]; [35],31.3 µg/mL
same,MIC90,Staphylococcus aureus [11]; [35],62.5 µg/mL
same,MIC50,Escherichia coli [12]; [36],62.5 µg/mL
same,MIC90,Escherichia coli [12]; [36],125 µg/mL
same,MIC50,Escherichia coli [13]; [37],31.3 µg/mL
same,MIC90,Escherichia coli [13]; [37],62.5 µg/mL
same,Activity,Pseudomonas aeruginosa [27],Active
same,Activity,Staphylococcus aureus [9],Active
NCCCC[C@H](NC(=O)[C@H](Cc1cnc[nH]1)NC(=O)CN)C(=O)O (H-Gly-His-Lys-OH),Activity,Staphylococcus aureus [17],Active
same,Activity,Escherichia coli [14],Active
same,Activity,Staphylococcus aureus [15],Active
same,Activity,Pseudomonas aeruginosa [21],Active
CCCCCCCCCCCCCCCCCC(=O)NCC(=O)N1CC(O)CC1C(=O)N[C@@H](CCCCN)C(=O)O (some centres undefined),Activity,Escherichia coli [3],Active
same,Activity,Staphylococcus aureus [5],Active
same,Activity,Candida albicans [28],Active
same,Activity,Candida albicans [29],Active
same,Activity,Candida albicans [30],Active
CC(=O)NCC(=O)NCC(=O)N1CC(O)CC1C(=O)N[C@@H](CCCCN)C(=O)O (some centres undefined) (Ac-GG[ξHyp]K-OH),Activity,Escherichia coli [3],Active
CCCCCCCCCCCCCCCCCC(=O)NCC(=O)NCC(=O)N1CC(O)CC1C(=O)N[C@@H](CCCCN)C(=O)O (some centres undefined) (Stearoyl-GG[ξHyp]K-OH),Activity,Candida albicans [31],Active
same,Activity,Candida albicans [26],Active
CSCC[C@H](NC(=O)CN)C(=O)N[C@@H](CCCCN)C(=O)O (H-Gly-Met-Lys-OH),Activity,Escherichia coli [14],inactive
same,Activity,Escherichia coli [3],Active
NCCCC[C@H](NC(=O)C1CC(O)CN1C(=O)CN)C(=O)O (some centres undefined) (H-Gly-[ξHyp]-Lys-OH),Activity,Staphylococcus aureus [17],Active
same,Activity,Escherichia coli [14],Active
same,Activity,Staphylococcus aureus [15],Active
same,Activity,Pseudomonas aeruginosa [21],Active
CCCCCCCCCCCC(=O)NCC(=O)N1CC(O)CC1C(=O)N[C@H](CCCCN)C(=O)O (some centres undefined),Activity,Escherichia coli [14],Active
same,Activity,Escherichia coli [3],Active
same,Activity,Staphylococcus aureus [5],Active
same,Activity,Staphylococcus aureus [32],Active
CN(C)[C@@H]1C(O)=C(C(N)=O)C(=O)[C@@]2(O)C(O)=C3C(=O)c4c(O)cccc4[C@@](C)(O)[C@H]3C[C@@H]12 [TETRACYCLINE],MBC50,Pseudomonas aeruginosa [25],31.3 µg/mL
same,MBC90,Pseudomonas aeruginosa [25],62.5 µg/mL
same,MBC,Pseudomonas aeruginosa [25]; [38],31.3 µg/mL
same,MIC,Pseudomonas aeruginosa [25]; [38],3.9 µg/mL
same,MIC50,Pseudomonas aeruginosa [25]; [38],3.91 µg/mL
same,MIC90,Pseudomonas aeruginosa [25]; [38],7.81 µg/mL
CCCCCCCCCCCC(=O)NCC(=O)N1CC(O)CC1C(=O)N[C@@H](CCSC)C(=O)N[C@@H](CCCCN)C(=O)O (some centres undefined) (Lauroyl-G[ξHyp]MK-OH),Activity,Staphylococcus aureus [33],Active
